Results published in patent US20090304674A1, “METHODS FOR TREATING DISEASE BY REGULATING CLL CELL SURVIVAL” (priority 2005, published 2009).
“Also recorded” adds a separate entry of the source.

How the values were obtained:
Assay type in all cases: cell-based, human
transfected CLL cells = experiment: Viability of CLL cells transfected with SR-IκBα or control vector (Amaxa nucleofection); conditions: rhBAFF 50 ng/ml or rhAPRIL 500 ng/ml for 24 hours, added four hours after transfection
Experimental: (§1) Freshly thawed CLL B cells were cultured at the concentration of 1×10^6/mL under various conditions. Determination of CLL cell viability in this study was based on the analysis of mitochondrial transmembrane potential (Δψm) using 3,3′-dehexyloxacarbocyamine iodine (DiOC6) and cell membrane permeability to PI, as described. For viability assays, 100 μl of the cell culture was collected at the indicated time points and transferred to polypropylene tubes containing 100 μl of 80 nmol/l DiOC6 (Molecular Probes) and 2 μg/ml PI in FACS buffer. The cells then were incubated at 37° C. for 15 minutes and analyzed within 30 minutes by flow cytometry using a FACSCalibur (Becton Dickinson). Fluorescence was recorded at 525 nm (FL-1) for DiOC6 and at 600 nm (FL-3) for PI.
CLL cells were transfected using the Amaxa nucleofection technology (Amaxa). Cells were resuspended in solution from human B cell nucleofector kit, also available as part of Amaxa cell optimization kit, according to the manufacturer's instructions. Briefly, 100 μl of 5×10^6 cell suspension mixed with 5 μg cDNA was transferred to the provided cuvette and nucleofected with an Amaxa Nucleofector apparatus (Amaxa). Cells were transfected using the U-15 pulsing parameter and immediately transferred into wells containing 37° C. pre-warmed culture medium in 12-well plates. After transfection, cells were cultured from 4 to 48 hours before analyzing by FACS. pmaxGFP was used to gauge transfection efficiency.

Mcl-1 in CLL B cells = experiment: Immunoblot of Mcl-1 expression in CLL B cells; conditions: short-term culture of isolated CLL B cells
Experimental: (§2) Cell lysates were prepared with RIPA buffer (10 mM Tris (pH 7.4), 150 mM NaCl, 1% Triton x 100, 1% deoxycholate, 0.1% SDS, 5 mM EDTA), containing 1 mM PMSF, 0.28 TIU/ml aprotinin, 50 μg/ml leupeptin, 1 mM benzamidine, 0.7 μg/ml pepstatin. Lysates were normalized for total protein (20 μg), subjected to SDS-PAGE (4-15% gradient gels, Bio-Rad, Hercules, Calif.) and immunoblot assay. We incubated the blots with secondary antibodies that were conjugated with horseradish peroxidase. Blots then were prepared for enhanced chemiluminescence (ECL) detection system (Amersham, Little Chalfont, Buckinghamshire, UK) and subsequent autoradiography with Super RX film (Fuji, Tokyo, Japan). The mouse mAb against APRIL (APRIL8) was from Alexis Biochemicals. The mouse mAb against inhibitor of kappa B-α (IκκBα was from Imgenex (San Diego, Calif.). The antibodies against anti-phosho-MAP kinase Erk1/2 and anti-MAP kinase Erk1/2-CT were purchased from Upstate Biotechnology. Antibodies against AKT or phospho-AKT (Ser473) were from Cell Signaling (Beverly, Mass.). Rabbit polyclonal antibodies (Mcl-1, Bcl-2, and Bax) were raised against synthetic peptides.21 Also primary antibodies included β-actin (Sigma Immunochemicals, St Louis, Mo.). Anti-p52 and anti-p65 antibodies were purchased from Upstate Biotechnology.

[1] = test system: NF-κB2/p100 pathway in CLL B cells; experiment: Immunoblot of alternative NF-κB2 pathway activation (p100 to p52, p52 nuclear translocation) in CLL B cells; conditions: concentrations that promote CLL cell survival; rhBAFF 50 ng/ml, rhAPRIL 500 ng/ml, 24 hours
Experimental: as §2
For fractionation experiments, cells were collected by centrifugation and washed with PBS. The cell pellet containing 5×10^6 cells was suspended in 100 μl of hypotonic buffer (50 mM Tris (pH7.4), 5 mM EDTA, 10 mM NaCl, 0.05% NP-40, 1 mM PMSF, 10 μg/ml Aprotinin, 10 μg/ml Leupeptin, 10 μg/ml Pepstatin, 10 mM β-Glycerophosphate, 1 mM Na-Vanadate, 1 mM NaF). After 10 minutes the lysate was spun and the supernatant was collected as cytoplasmic lysates. The pellet was washed 5 times in hypotonic buffer containing 0.1% NP-40. The remaining pellet was suspended in 100 μl RIPA buffer containing protease and phosphatase inhibitors. […]

[2] = test system: NF-κB1 binding activity in CLL cells; experiment: Electrophoretic mobility shift assay of NF-κB DNA binding in nuclear extracts of CLL cells; conditions: rhBAFF 50 ng/ml or rhAPRIL 500 ng/ml, 24 hours
Experimental: Nuclear proteins were extracted using a nuclear extraction kit (Pierce, Rockford, Ill.) in presence of 1× complete protease inhibitor cocktail (Roche diagnostics). Total protein was measured using a modified Bradford test (Bio-Rad, Hercules, Calif.). 2 μg of nuclear protein extracts were incubated on ice for 30 min with antibodies to p50 and p65 (Santa Cruz Biotechnology). Later, a radiolabeled double stranded probe that encompassed the κB1 site was added, followed by incubation at room temperature for 30 min. Samples were loaded on a 6% acrylamide gel and run at 150 volts for three and a half hours.

AKT in CLL B cells = experiment: Immunoblot of AKT (Ser473) phosphorylation in CLL B cells; conditions: 3 or 10 minutes; SDF-1α 200 ng/ml, rhBAFF 50 ng/ml
Experimental: as §2

[3] = test system: isolated CD19+ CLL B cells; experiment: Viability of isolated CLL B cells cultured without NLC (DiOC6/PI flow cytometry); conditions: rhBAFF 50 ng/ml, rhAPRIL 500 ng/ml; samples of 3 patients
Experimental: as §1, with “of 1×10^6/ml” for “of 1×10^6/mL”, “as described.22” for “as described.”, “of 60” for “of 80”, “and 10” for “and 2”

[4] = test system: p44/42 MAPK (ERK1/2) in CLL B cells; experiment: Immunoblot of ERK1/2 phosphorylation in CLL B cells; conditions: 3 or 10 minutes; SDF-1α 200 ng/ml, rhBAFF 50 ng/ml
Experimental: as §2

[5] = test system: canonical NF-κB1 pathway in CLL B cells; experiment: Immunoblot of canonical NF-κB1 pathway activation (IκBα degradation/phosphorylation, p65 nuclear translocation) in CLL B cells; conditions: concentrations that promote CLL cell survival; rhBAFF 50 ng/ml, rhAPRIL 500 ng/ml
Experimental: as §2
For fractionation experiments, cells were collected by centrifugation and washed with PBS. The cell pellet containing 5×10^6 cells was suspended in 100 μl of hypotonic buffer (50 mM Tris (pH7.4), 5 mM EDTA, 10 mM NaCl, 0.05% NP-40, 1 mM PMSF, 10 μg/ml Aprotinin, 10 μg/ml Leupeptin, 10 μg/ml Pepstatin, 10 mM β-Glycerophosphate, 1 mM Na-Vanadate, 1 mM NaF). After 10 minutes the lysate was spun and the supernatant was collected as cytoplasmic lysates. The pellet was washed 5 times in hypotonic buffer containing 0.1% NP-40. The remaining pellet was suspended in 100 μl RIPA buffer containing protease and phosphatase inhibitors. After an appropriate amount of 3× sample buffer (200 mM Tris (pH 6.8), 30 mM EDTA, 30% Glycerol, 6% SDS) was added, the sample was boiled for 10 minutes, spun for 10 minutes and the supernatant was recovered as nucleus lysates. Anti-NF kappa B p52 and p65 were purchased from Upstate Biotechnology. Anti-SP-1 was purchased from Santa Cruz Biotechnology (Santa Cruz, Calif.).
Cell lysates were prepared with radioimmunoprecipitation assay (RIPA) buffer (10 mM Tris [pH 7.4], 150 mM NaCl, 1% Triton X-100, 0.1% deoxycholate, 0.1% SDS, 5 mM EDTA), containing 1× complete protease inhibitor cocktail (Roche diagnostics), 1 mM sodium fluoride (NaF), and 1 mM sodium vanadate (Na3VO4). Lysates were normalized for total protein (25 μg) and subjected to SDS-PAGE (4-15% gradient gels, Bio-Rad, Hercules, Calif.) and immunoblot assay. We incubated the blots with secondary antibodies that were conjugated with horseradish peroxidase. Blots then were prepared for enhanced chemiluminescence (ECL) detection system (Amersham, Little Chalfont, United Kingdom) and subsequent autoradiography with Super RX film (Fuji, Tokyo, Japan).
For fractionation experiments, cells were collected by centrifugation and washed with PBS. The cell pellet containing 5×10^6 cells was suspended in 100 μl of hypotonic buffer (50 mM Tris [pH7.4], 5 mM EDTA, 10 mM NaCl, 0.05% Nonidet P40 [NP-40]), containing 1× complete protease inhibitor cocktail, 1 mM NaF, and 1 mM Na3VO4. After 10 minutes, the lysate was spun and the supernatant was collected as cytoplasmic lysates. […]

[6] = test system: Bcl-2, Bax, Bcl-xL in CLL B cells; experiment: Immunoblot of Bcl-2, Bax, Bcl-xL expression in CLL B cells; conditions: short-term culture of isolated CLL B cells
Experimental: as §2

Substance | viability of CLL cells transfected with SR-IκBα (transfected CLL cells) | viability of CLL cells transfected with control expression plasmid (transfected CLL cells) | induction of Mcl-1 expression in CLL B cells (Mcl-1 in CLL B cells) | activation of NF-κB2 (processing of p100 to p52, translocation of p52 to the nucleus) [1] | NF-κB consensus motif binding proteins in nuclear extracts (EMSA) [2] | induction of phosphorylation/activation of AKT (Ser473) (AKT in CLL B cells) | viability of isolated CLL cells cultured without NLC versus control [3] | induction of phosphorylation of ERK1/2 [4] | activation of classical/canonical NF-κB pathway (IκBα degradation, p65 translocation to nucleus) [5] | changes in levels of Bcl-2, Bax, or Bcl-xL [6]
rhAPRIL: recombinant human a proliferation-inducing ligand, purchased from Alexis Biochemicals | had no effect on CLL cells transfected with SR-IκBα | significantly enhanced the viability of the cells transfected with the control expression plasmid | induced to express increased levels of Mcl-1 | did not observe activation of NF-κB2; also recorded: did not observe translocation of p52 to the nucleus | increased amounts of proteins capable of binding NF-κB consensus motifs | could not induce | significant greater than that of control treated CLL cells; also recorded: significantly improved the viability of CLL cells | could not induce phosphorylation of p44/42 mitogen-activated phosphokinase (MAPK, ERK1/2) | induced degradation of the inhibitor of kappa B (IκBα) and translocation of p65 to the nuclear fraction; also recorded: induced translocation of p65 to the nucleus | –
rhBAFF: recombinant human B cell-activating factor of the TNF family | had no effect on CLL cells transfected with SR-IκBα | significantly enhanced the viability of the cells transfected with the control expression plasmid | induced to express increased levels of Mcl-1 | could induce activation of NF-κB2; also recorded: could induce translocation of p52 to the nucleus | increased amounts of proteins capable of binding NF-κB consensus motifs | could not induce | significant greater than that of control treated CLL cells; also recorded: significantly improved the viability of CLL cells | could not induce phosphorylation of p44/42 mitogen-activated phosphokinase (MAPK, ERK1/2) | induced degradation of the inhibitor of kappa B (IκBα) and translocation of p65 to the nuclear fraction; also recorded: induced translocation of p65 to the nucleus | did not observe significant changes
